Source: US20250205385A1, “SILICONE MATERIAL, SILICONE TUBE, IMPLANT, PHARMACEUTICAL COMPOSITION, AND TEST METHOD FOR AMOUNT OF DRUG RELEASED” (SHENYANG XINGHUA PHARMACEUTICAL TECHNOLOGY CO., LTD, priority 2022, published 2025)
Values after ≈ are worked out from the molar mass of the structure shown. Where two headings read alike, the source gives them in different places.

Tests used:
[1] = cited from earlier work; for Solubility: in water
[2] = Equilibrium solubility of gestodene bulk drug in water and normal saline, before and after micronization; type: physicochemical; conditions: thermodynamic from solid, shaken 72 hours
Description: The prepared implant needs to be implanted in the subcutaneous tissue of the human upper arm, where the pH is close to neutral. Therefore, the release medium can be either water or normal saline. A supersaturated solution of the gestodene bulk drug in water and normal saline, both before and after micronization, was prepared. The solution was placed in a shaker and shaken for 72 hours. After shaking, the mixture was taken out and centrifuged, and the supernatant was filtered. The equilibrium solubility of the gestodene bulk drug in water and normal saline, both before and after micronization, was determined using high performance liquid chromatography. Based on the results, the appropriate release medium was selected.
In vitro release experiments were conducted on implants with different silicone tube wall thicknesses, medicinal core side areas, and drug particle sizes. Based on the in vitro release results, long-acting contraceptive implants with a daily drug release of 10-30 μg were prepared. The prepared implant was implanted in the subcutaneous tissue of the human upper arm, where the pH was close to neutral, allowing the release medium to be chosen between water and normal saline. A supersaturated solution of the gestodene bulk drug in water and normal saline, both before and after micronization, was prepared. The solution was placed in a shaker and shaken for 72 hours. After shaking, the mixture was taken out and centrifuged, and the supernatant was filtered. The equilibrium solubility of the gestodene bulk drug in water and normal saline, both before and after micronization, was determined using high performance liquid chromatography. Based on the results, the appropriate release medium was selected. Water was selected as the release medium for the in vitro release experiments. In the following experiments to investigate the in vitro release amount, the implant from Example 27 was subjected to depowdering pre-treatment, which involved adding 50 mL of anhydrous ethanol to a conical flask containing the implant, followed by ultrasonication for 1 minute. This process was repeated three times, after which 100 mL of distilled water was added and left overnight. The next day, the soaking solution was discarded, and the implant was placed in a shaker for in vitro release.

[3] = cited from earlier work

O=c1c(-c2ccc(O)cc2)coc2c([C@@H]3O[C@H](CO)[C@@H](O)[C@H](O)[C@H]3O)c(O)ccc12 [puerarin]
Solubility ([1]; bulk drug): 4000 µg/mL (≈ 9610 µM)
LogP ([1]; bulk drug): −0.67
pKa ([1]; bulk drug): 6.45
pKa [1]: 6.45
solubility in water [1]: 4000 µg/mL (≈ 9610 µM)

Cc1cnc(NC(=O)C2=C(O)c3ccccc3S(=O)(=O)N2C)s1 [meloxicam]
Solubility ([1]; bulk drug): 3.4 µg/mL (≈ 9.68 µM)
LogP ([1]; bulk drug): 3.35
pKa ([1]; bulk drug): 4
pKa [1]: 4
solubility in water [1]: 3.4 µg/mL (≈ 9.68 µM)

CC(C)Cc1ccc(C(C)C(=O)O)cc1 (stereo not shown) [ibuprofen]
Solubility ([1]; bulk drug): 60 µg/mL (≈ 291 µM)
LogP ([1]; bulk drug): 3.72
solubility in water [1]: 60 µg/mL (≈ 291 µM)

C#C[C@]1(O)C=C[C@H]2[C@@H]3CCC4=CC(=O)CC[C@@H]4[C@H]3CC[C@@]21CC [gestodene]
solubility at 72 h ([2]; normal saline, saline or isotonic, drug particle size 2.81 μm (micronized), normal saline (NS)): 2.71 ± 0.24 µg/mL (≈ 8.73 µM)
solubility at 72 h ([2]; normal saline, saline or isotonic, drug particle size 80.30 μm (unmicronized), normal saline (NS)): 5.3 ± 0.58 µg/mL (≈ 17.1 µM)
solubility at 72 h ([2]; water or normal saline, drug particle size 2.81 μm (micronized), water): 4.11 ± 0.52 µg/mL (≈ 13.2 µM)
solubility at 72 h ([2]; water or normal saline, drug particle size 80.30 μm (unmicronized), water): 5.64 ± 0.62 µg/mL (≈ 18.2 µM)
bioavailability ([3]; background statement): ~100%
daily release sufficient to produce a contraceptive effect ([3]; humans, review of the literature): 10 to 20 µg

Cc1nc2n(c(=O)c1CCN1CCC(c3noc4cc(F)ccc34)CC1)CCCC2O (stereo not shown) [paliperidone]
LogP ([1]; bulk drug): 3.02
pKa ([1]; bulk drug): 7.72
pKa [1]: 7.72
